Row | Structure (SMILES) | melting point
1 | CC(=O)c1cccc(C(=O)N2CCN(C(=O)c3cc(C(F)(F)F)cc(C(F)(F)F)c3)[C@H](Cc3ccc(C)c(C)c3)C2)c1 | 156 to 157 °C
2 | CCOC(=O)c1cn2c3c(c(-c4cc(C)nc(C)c4)c(F)c(F)c3c1=O)OC[C@@H]2C | 295 to 297 °C
3 | CCC(OC(=O)C1CC1)c1ccc(Cl)c2nc3n(c12)CCCN3c1ccc(OC)nc1C (stereo unspecified) | 149 to 151 °C
4 | COCCSc1cc(N)ncn1 | 78 to 80 °C
5 | COC(=O)c1c(C(F)F)nc(C(F)(F)F)c(C2CC(C)N(O)C2)c1CC1CC1 (stereo unspecified) | 142 to 144 °C
6 | Cc1cc(C(F)(C(F)(F)F)C(F)(F)F)ccc1NC(=O)c1ccnc(Cl)c1C(=O)NC(C)C | 275 to 277 °C
7 | COc1cc2c(cc1OC)C(c1ccc([N+](=O)[O-])cc1)=NN(c1ccccn1)[C@H](C)C2 | 210 to 214 °C
8 | CCc1nnc(C=Cc2ncc([N+](=O)[O-])n2C)s1 | 165 °C
9 | CS(=O)(=O)Nn1c(=O)[nH]c2cc([N+](=O)[O-])c(NC3CCCC3)cc2c1=O | 146 to 155 °C
10 | CC(C)n1nc(-c2sc(NC(C)(C)C)nc2-c2ccccc2)ccc1=O | 189 to 190 °C
11 | CC[C@H](C)[C@H](NC(=O)N(C)Cc1ccccn1)C(=O)N[C@@H](Cc1ccccc1)C[C@H](O)[C@H](Cc1ccccc1)NC(=O)OCc1cncs1 | 64 to 67 °C
12 | CCn1cnc(Cl)c2nc(C3CC3)nc1-2 | 140 to 145 °C
13 | COc1cc(Nc2c(C#N)cnc3cc(/C=C/C(=O)N4CCN(C)CC4)sc23)c(Cl)cc1Cl | 218 to 220 °C
14 | CC(Cc1c[nH]c2ccccc12)(NS(=O)(=O)CC12CCC(CC1=O)C2(C)C)C(=O)NC(CO)Cc1ccccc1 (stereo unspecified) | 81 to 85 °C
15 | Cc1c(N2CC[C@H](N(C)C)C2)c(F)c(N)c2c(=O)c(C(=O)O)cn(C3CC3)c12 | 204 to 206 °C
16 | COc1ccc(N=C2SC(=CC(=O)O)C(=O)N2c2ccc(OC)cc2)cc1 | 184 to 187 °C
17 | Cc1nc2c(OCc3ccccc3)cc(Br)cc2n1C | 177 to 179 °C
18 | CCOC(=O)c1nc(NCC(c2ccccc2)c2ccccc2)c2ncn(C3CCCCO3)c2n1 (stereo unspecified) | 138 to 140 °C
19 | O=C(c1ccccc1Cl)c1ccc(O)c(Cl)c1Cl | 74 to 77 °C
20 | C=CCc1c(SC(C)=O)[nH]c(-c2ccc(Cl)cc2)c1-c1ccc(Cl)cc1 | 131 to 132 °C
21 | COC(=O)c1ccc(/C=C/c2nc(-c3ccccc3)oc2C)cc1 | 164 to 165 °C
22 | CC(=O)OC1CSC(Oc2cncc(I)c2)C(OC(C)=O)C1OC(C)=O (stereo unspecified) | 148 to 150 °C
23 | CC(=CC(=O)c1ccc(C(=O)N2Cc3cccn3Cc3ccccc32)cc1)N(C)C | 183 to 185 °C
24 | CCOC(=O)C=C(C)Nc1ccc2nc[nH]c2c1 | 160 to 162 °C
25 | CNC(=S)Nc1cc(F)ccc1N1CCOCC1 | 145 to 148 °C
26 | CN(C)C(=O)c1ccc(C(N)=O)cc1S(N)(=O)=O | 202 to 205 °C

Row | Structure (SMILES) | melting point
27 | COc1c(N(C)C)cc(CC(C#N)=CNc2ccccc2)cc1N(C)C(C)=O | 176 to 178 °C
28 | CCN(CC)C(=O)COc1ccc(S(=O)(=O)c2ccc(O)cc2)cc1 | 223 to 226 °C
29 | CCOC(=O)Cn1cnc2c(N3CCOCC3)nc(NC(=O)C3CCCCC3)nc21 | 142 to 147 °C
30 | Cc1ccc(-c2nn(CCCO)c(N)c2C(N)=O)cc1 | 164 to 165 °C
31 | COc1cccc(-c2cccc(OC3SCC(OC(C)=O)C(OC(C)=O)C3OC(C)=O)c2)n1 (stereo unspecified) | 195 °C
32 | COc1cccc(Oc2ncccc2C#N)c1 | 66 to 68 °C
33 | O=Cc1c[nH]c2c1ccc1c3cc(F)ccc3[nH]c12 | > 250 °C
34 | Sc1nc2cc3c(cc2[nH]1)COCO3 | 288 to 289 °C
35 | CCCCCC(=O)Nc1ccc2ccn(Cc3ccc(C#N)cc3OC)c2c1 | 136 to 138 °C
36 | COCCOC(=O)c1cnn2c(-c3cccc(C(F)(F)F)c3)ccnc12 | 111 to 112 °C
37 | CC[C@@]12C[C@H](O)[C@](O)(c3ccccc3)C[C@H]1CCc1cc(O)ccc12 | 191 to 192 °C
38 | NC(=S)NN=Cc1ccc(N)cn1 | 205 to 207 °C
39 | CCNC(=O)ON=C1CCOc2ccccc21 | 110 to 111 °C
40 | COCc1nc2cnc3ccccc3c2n1CC(C)C | 96 to 99 °C
41 | Cc1cc(C#N)cc(C)c1C(=O)CBr | 76 °C
42 | Cc1cccc(C(=O)NC(Nc2c(Nc3cccnc3Cl)c(=O)c2=O)C(C)(C)Cc2ccccc2)c1 (stereo unspecified) | 234 to 235 °C
43 | N#Cc1c(C(F)(F)F)cc(-c2ccc(C(F)(F)F)cc2)[nH]c1=O | 197 °C
44 | CCCCCCCCCCOC(=O)N[C@H]1CCCNC(=O)C1 | 40 to 41 °C
45 | CSc1ccc(C(CC2CCCO2)C(=O)O)cc1Cl (stereo unspecified) | 93 to 96 °C
46 | Cn1c(CCCCl)nc2ccc3ccccc3c21 | 246 to 248 °C
47 | Cc1nn2ccccc2c1C1=NNC(=O)CC1C (stereo unspecified) | 146 to 147 °C
48 | CC(C)n1nc(-c2cc(C#N)c(N)nc2-c2ccccc2)ccc1=O | 197 to 198 °C
49 | COc1nc(C)c(C)nc1NC(=O)N1CCN(c2ccc(C(C)=O)cc2)CC1 | 166 to 168 °C
50 | Cc1cn(C)c2c1N(C(=O)C(C)N1CCCC1)c1ccccc1NC2=O (stereo unspecified) | 213 to 215 °C
51 | CC(C)C(=O)CCC(C)C1CCC2C3CC(O)C4CC(O)CCC4(C)C3CCC12C (stereo unspecified) | 180 to 181 °C
52 | CNc1cc(F)ccc1-c1c(C#N)n[nH]c1-c1ccc(S(C)(=O)=O)cc1 | 192 to 193 °C

Row | Structure (SMILES) | melting point
53 | O=C(O)c1c(Cc2cc3c(cc2Cl)OCO3)c(-c2ccsc2)nn1CC1CCCCC1 | 250 °C
54 | CCNc1ncc(Nc2ccc(Cl)cc2)nc1-n1nc(C)cc1C | 122 to 124 °C
55 | Cc1ccc(-c2cnn(-c3ccc(C)cc3)n2)cc1 | 98 to 99 °C
56 | CCOC(=O)c1ncn2c1CN(C)C(=O)c1c(Br)cccc1-2 | 214 to 215 °C
57 | Cc1c(Cl)nc2c(C=O)cnn2c1Cl | 137 to 139 °C
58 | CCOC(=O)CCc1cn(Cc2ccc(OCc3csc(-c4ccccn4)n3)cc2)cc1-c1ccccc1 | 81 to 82 °C
59 | C1CNCCNCCNCCNCCNC1 | 109 to 110 °C
60 | CC(C)NC(=O)NC/C=C\COc1cc(CN2CCCCC2)ccn1 | 90 to 92 °C
61 | N#CN=C(Nc1cccnc1)NC1CCCCC1 | 185 to 186 °C
62 | O=C(O)COc1ccc2cc(-c3csc(Cc4c(Cl)cccc4Cl)n3)ccc2c1 | 205 to 207 °C
63 | Cc1cc(C(=O)O)n(-c2ccc(C=Cc3ccccc3)c(C#N)c2)n1 | 226 °C
64 | COS(=O)(=O)Cc1cccc(-c2nc(=O)c3ccccc3s2)n1 | 102 °C
65 | Clc1ccc2oc(Cl)nc2c1 | 46 to 48 °C
66 | O=C(O)COc1cccc(COC(=O)N(c2ccccc2)c2ccccc2)c1Cl | 182 to 183 °C
67 | CCCCCCCNC(=O)Oc1ccc2c(c1)c(C)cn2NCCCc1ccncc1F | 90 to 93 °C
68 | O=C(Cc1ccc(Cl)cc1)Nc1cccc(-n2nc(C(F)(F)F)cc2C(F)(F)F)c1 | 209 to 211 °C
69 | COc1ccc(CNn2nnc3c(Cl)ncnc32)cc1 | 110 to 112 °C
70 | CN(c1ccc(Cl)cc1)S(=O)(=O)c1cccc(C(=O)Nc2ccc(Cl)cc2C#N)c1 | 157 to 158 °C
71 | COC(=O)[C@H](Cc1ccc(NC(=S)NCCCc2ccccc2)cc1)NC(=O)[C@@H]1CCCN1S(=O)(=O)c1ccc(C)cc1 | 74 to 80 °C
72 | Cc1c(C(=O)O)ccc2c3ccccc3n(Cc3ccccc3)c12 | 215 to 216 °C
73 | CCc1nc2c(C)cc(C)nc2n1Cc1ccc(-c2ccccc2-c2c(O)c(=O)c2=O)cc1 | 245 to 247 °C
74 | COc1cc(C)c(C(=O)c2c(C)cccc2OC)c(OC)c1OC | 84 °C
75 | Nc1c(Cl)ncnc1NCc1ccc(CO)o1 | 137 °C
76 | CCc1c(C(=O)c2cc(C)cc(C)c2)n(COCc2ccccc2)c(=O)[nH]c1=O | 115 to 116 °C
77 | Cc1cc(Nc2ccc(C(=O)O)cc2)c2[nH]ncc2n1 | 238 to 241 °C
78 | CCc1nnc2c(Cl)nc3cc(OC)ccc3n12 | 173 to 175 °C

Row | Structure (SMILES) | melting point
79 | O=c1[nH]c(S)ncc1O | > 300 °C
80 | O=c1cc(-c2ccccc2)oc2cc(OCC(O)CNCCCCc3cccnc3)ccc12 (stereo unspecified) | 116 to 119 °C
81 | CC(C)(C)c1nc2cc(N3CCN(S(C)(=O)=O)CC3)c(N)cc2s1 | 153 to 155 °C
82 | CCOC(=O)c1cc(-n2c(=O)[nH]c3c(c2=O)CCC3)ccc1Cl | 178 to 180 °C
83 | CCC(C)(C)c1c(OCc2ncnn2C)nn2c(-c3ccccc3F)nncc12 | 89 to 91 °C
84 | CCCC1=C(C#N)C(c2cccnc2)c2c[nH]nc2N1 (stereo unspecified) | 201 °C
85 | Nc1nc2ccccc2c2c1ncn2COCCO | 210 to 212 °C
86 | COc1ccc(NCC(=O)N2CCC(Oc3ccc(Cl)cc3)CC2)cc1 | 127 to 130 °C
87 | O=C1NC(=S)CCC1N1Cc2c(cccc2[N+](=O)[O-])C1=S (stereo unspecified) | 248 to 250 °C
88 | O=S(=O)(O)c1nc2cc(Cl)c(Cl)cc2[nH]1 | 353 to 354 °C
89 | O=C(O)c1cccnc1Oc1ccc(-c2nnn[nH]2)cc1 | 225 to 230 °C
90 | CC1(C)Oc2ccc(C(=O)CO)cc2[C@H](NC(=O)c2ccc(F)cc2)[C@H]1O | 216 °C
91 | c1cc2c(cc1OCC1CCCCC1)CCCCC2 | 62 to 63 °C
92 | O=C(O)COc1ccc2c(c1)CCc1sc(SCCC(c3ccccc3)c3ccccc3)nc1-2 | 138 to 140 °C
93 | CON1C=C(C)N=C(NC(=O)NS(=O)(=O)c2ccccc2C=CC(F)(F)F)N1 | 159 to 160 °C
94 | O=C(NCCc1c[nH]c2ccccc12)C1CCCCC1 | 98 to 99 °C
95 | CSc1ccc(C(=O)c2cc(-c3ccccc3)c(N3CCOCC3)s2)cc1 | 165 °C
96 | Cc1cc(C2=NOC(c3cc(Cl)cc(Cl)c3)(C(F)(F)F)C2)ccc1Cl (stereo unspecified) | 110 to 111 °C
97 | CCN(CC)CCNC(=O)c1cnc(-c2ccccc2)nc1Cl | 40 to 45 °C
98 | O=C(O)C(=O)c1cn(Cc2ccccc2)c2ccc(-c3ccc(OC(F)(F)F)cc3)cc12 | 169 to 171 °C
99 | CCOC(=O)CCc1cccc(NC(=O)c2cc(-c3ccc(C(F)(F)F)cc3)oc2C)c1 | 134 to 135 °C
100 | COC(=O)c1ccc(OCCCCC2Cc3c(c(OC)c(OC)c(OC)c3OC)C2)cc1 | 68 to 71 °C
101 | CC1(C)CC(=O)c2c(-c3ccccc3)sc(-c3nccs3)c2C1 | 141 to 143 °C
